PMC12471852, “Design and Synthesis of Marine-Inspired Itampolin A Derivatives to Overcome Chemoresistance in NSCLC via Cholesterol Homeostasis Modulation” (Marine Drugs, 2025)
Values joined by “and” are separate entries in the source; they are usually repeats but may differ in a detail not shown here. Identical values can stand only once. “Also recorded” adds a separate entry of the source.

Experiments:
Type in all cases: cell-based, human
[1] = tested on: PC9/GR cells; test: Clonogenic survival / colony formation assay; settings: 24 h pretreatment, 14 days culture, p < 0.05 vs untreated controls
Experimental: (§1) To evaluate the tumor-selective activity of compounds 4l and 4m, dose–response studies were performed on wild-type PC9 and gefitinib-resistant PC9/GR cell lines. […] Subtoxic concentrations of 25, 50, and 75 μM were employed to ensure specificity for drug-resistant phenotypes while preserving normal cell viability. […] To assess long-term proliferative potential, clonogenic survival assays were performed. Cells pretreated with 4l (24 h) were trypsinized to generate single-cell suspensions, plated at 300 cells/well, and cultured for 14 days. […] Cell migration ability was evaluated by the scratch healing assay. […] To evaluate the pro-apoptotic efficacy of 4l, we employed a dual-staining approach using Annexin V-FITC and propidium iodide (PI) for quadrant-specific quantification of programmed cell death. Annexin V binds externalized phosphatidylserine (PS), a hallmark of early apoptosis, while PI permeabilization discriminates late-stage apoptotic or necrotic cells.
Clonogenic Survival: Single-cell suspensions (300 cells/well) were cultured for 14 days. Colonies (>50 cells) were fixed (4% PFA), stained with crystal violet, and counted.
PC9/GR cells were seeded into 6-well plates at a density of […] and cultured in a 37 °C incubator for 2 weeks. The culture medium was then discarded, and the cells were washed with PBS. […] Finally, the number of cell colonies was counted.

[2] = tested on: PC9/GR cells; test: Intracellular total cholesterol quantification, PC9/GR cells
Experimental: Following sample collection, intracellular total cholesterol levels were quantified using a commercial Total Cholesterol (T-CHO) assay kit (Nanjing Jiancheng Bioengineering Institute, Nanjing, China) according to the manufacturer’s protocol. Cells were treated as indicated 24 h prior to analysis. Total cellular protein was extracted, and protein concentration was determined using a bicinchoninic acid (BCA) assay. Protein aliquots were loaded in duplicate into a 96-well microplate. Reagents were added sequentially as specified in the kit instructions. After incubation at 37 °C for 10 min, absorbance was measured at 510 nm using a microplate reader. Total cholesterol content was normalized to cellular protein concentration and expressed as μg cholesterol per mg protein.

[3] = tested on: p38 activation / C/EBPβ expression; test: Western blot of p38, p-p38 and C/EBPβ; settings: PC9/GR
From the text: (§2) We obtained the gene promoter sequence of TM7SF2 from the NCBI database and utilized online databases JASPAR, UCSC, and hTFtarget to predict potential transcription factors for TM7SF2 (Table S2). […] Some studies indicate that p38 can induce C/EBPβ expression through the activation of p38 MAPK, JNK, or ERK in different experimental environments. We conducted Western blot experiments to detect changes in C/EBPβ expression and p38 protein activation and used ChIP and qPCR to determine whether C/EBPβ can target the TM7SF2 promoter region. […] Furthermore, the strength of this direct binding may be related to intracellular cholesterol levels.
(§3) Western blot: Proteins extracted with RIPA buffer were quantified (BCA), separated by SDS-PAGE, transferred to PVDF membranes, and probed with antibodies. Signals were detected by ECL.

[4] = tested on: PC9 cells; test: MTT anti-proliferation assay, PC9 cells; settings: for MTT, PC9, value relative to control (=100), single replicate: 24 h
Experimental: as §1
(§4) The human normal lung epithelial cell line BEAS-2B, non-small cell lung carcinoma (NSCLC) cell line PC9, and gefitinib-resistant PC9/GR cell line were purchased from Procell Life Science & Technology Co., Ltd. (Wuhan, China). All cell lines were maintained in RPMI-1640 medium (BI, Beit Haemek, Mateh Asher, Israel) supplemented with 10% fetal bovine serum (FBS, Gibco, Thermo Fisher Scientific, Waltham, MA, USA) and 1% penicillin–streptomycin–amphotericin B sterile solution (Solarbio, Beijing, China). Cells were cultured at 37 °C in a humidified incubator with 5% CO2. For subculturing, cells were harvested using trypsin-EDTA solution upon reaching 70–80% confluence and resuspended at appropriate densities for subsequent experiments.
(§5) MTT: Cells (5 × 10^4/mL) were treated with 4l (25–100 μM, 24–48 h), incubated with MTT (10 μL/well, 4–6 h), and dissolved in DMSO. Absorbance (490 nm) was measured to assess viability.

[5] = tested on: BEAS-2B cells; test: MTT cytotoxicity assay, normal bronchial epithelial BEAS-2B cells
Experimental: The cytotoxicity of compound 4l on normal human bronchial epithelial cells (BEAS-2B) was also evaluated using the MTT assay. Cells treated with 0.1% DMSO served as the vehicle control.
as §4, §5

[6] = tested on: TM7SF2; test: Western blot / immunofluorescence of TM7SF2 protein in PC9/GR cells; settings: 4l-treated vs untreated PC9/GR, immunoblotting
From the text: By comparing PC9/GR treated with the small molecule compound 4l against untreated PC9/GR controls, we identified significant differentially expressed genes (DEGs). […] The results of the GO enrichment analysis further emphasized the significant impact of the small molecule compound 4l on steroid biosynthesis and metabolism in lung cancer cells, with the top five pathways being steroid biosynthesis, steroid metabolism, the metabolism of hydroxylated compounds, steroid biosynthesis, and cholesterol biosynthesis (Figure 4C). […] TM7SF2 has been identified as a critical regulator of cholesterol biosynthesis and steroid metabolism in lung cancer cells, a finding central to overcoming chemoresistance in NSCLC [28]. Thus, we selected TM7SF2 as the target gene for further experiments and investigated the protein expression of TM7SF2 in 4l-treated PC9/GR cells using immunoblotting.
as §3

[7] = tested on: PC9/GR cells; test: MTT anti-proliferation assay, gefitinib-resistant PC9/GR cells; settings: for MTT, PC9/GR, value relative to control (=100), single replicate: 24 h
Experimental: as §1, §4, §5

[8] = tested on: C/EBPβ binding to the TM7SF2 promoter region; test: ChIP-qPCR of C/EBPβ binding to the TM7SF2 promoter; settings: Anti-C/EBPβ group of PC9/GR cells treated with 4l
From the text: as §2
ChIP: 4l treated cells were crosslinked (1% formaldehyde, 20 min), lysed, and sonicated. Chromatin was immunoprecipitated with target antibodies, washed, and eluted. DNA was purified for qPCR.
qPCR: SYBR Green-based reactions (20 μL) included primers (0.4 μM each) and template DNA.

For `O=C(NCCc1cc(Br)c(O)c(Br)c1)Nc1ccc(F)cc1` [4l, 1-(3,5-dibromo-4-hydroxyphenethyl)-3-(4-fluorophenyl)urea], which colony formation [1] is on record?
The colony formation was “statistically significant inhibition”.

What about the intracellular cholesterol levels ([2]; PC9/GR, 24 h treatment) of the same compound?
The intracellular cholesterol levels was “reduced intracellular cholesterol levels”.

And the “effect of TM7SF2 overexpression on the 4l-induced change in intracellular cholesterol” value ([2]; TM7SF2-overexpressing PC9/GR cells)?
Its value is “abrogated the reduction in intracellular cholesterol levels”.

What about the “C/EBPβ expression and p38 activation” value [3] of the same compound?
Its value is “reduce C/EBPβ expression by inhibiting p38 activation”.

What about the “MTT, PC9, value relative to control (=100), single replicate” value (from here on “MTT, PC9, value relative to control”) ([4]; 25 (μM)) of the same compound?
The value was 96.45 and 96.61 and 99.63 and 98.61.

What about the “MTT, PC9, value relative to control” value ([4]; 50 (μM)) of the same compound?
The value was 81.78 and 87.43 and 80.72 and 89.73.

And the “MTT, PC9, value relative to control” value ([4]; 75 (μM))?
Its value is 88.89 and 73.34 and 79.63 and 70.04.

What about the “MTT, PC9, value relative to control” value ([4]; 100 (μM)) of the same compound?
The value was 57.64 and 69.62 and 60.69 and 61.33.

What about the IC50 ([4]; Homo sapiens, PC-9, wild-type PC9, MTT, 24-hour treatment, 0–100 μM, read-out: IC50, growth inhibition) of the same compound?
The IC50 was 136 µM.

What about the “MTT, normal cells, value relative to control (=100), single replicate” value ([5]; 25 (μM), 24 h) of the same compound?
Its value is 88.6 and 95.3 and 97.6 and 88.2.

What about the “MTT, normal cells, value relative to control (=100), single replicate” value ([5]; 25 (μM), 48 h) of the same compound?
The value was 90.6 and 83.5 and 89.7 and 76.4.

What about the “anti-proliferative effect on BEAS-2B cells” value ([5]; 25 to 100 μM, 24 h) of the same compound?
Its value is “no significant anti-proliferative effects”.

And the “MTT, normal cells, value relative to control (=100), single replicate” value ([5]; 50 (μM), 24 h)?
The value was 80.6 and 83.5 and 79.7 and 76.4.

What about the “MTT, normal cells, value relative to control (=100), single replicate” value ([5]; 50 (μM), 48 h) of the same compound?
Its value is 79.8 and 82.9 and 80.5 and 70.5.

And the “MTT, normal cells, value relative to control (=100), single replicate” value ([5]; 75 (μM), 24 h)?
Its value is 79.4 and 80.4 and 76.3 and 78.9.

And the “MTT, normal cells, value relative to control (=100), single replicate” value ([5]; 75 (μM), 48 h)?
The value was 75.2 and 77.7 and 73.1 and 76.4.

And the “MTT, normal cells, value relative to control (=100), single replicate” value ([5]; 100 (μM), 24 h)?
The value was 80.2 and 71.5 and 74.6 and 73.5.

And the “MTT, normal cells, value relative to control (=100), single replicate” value ([5]; 100 (μM), 48 h)?
Its value is 77.3 and 80.6 and 71 and 69.3.

And the “cytotoxicity in normal lung cells” value ([5]; doses ≤ 100 μM)?
The value was “negligible cytotoxicity; also recorded: minimal cytotoxicity”.

And the “cellular proliferation efficiency of BEAS-2B cells” value ([5]; prolonged treatment, 48 h)?
Its value is “remained comparable to untreated controls”.

And the “TM7SF2 protein expression level” value [6]?
The value was “significantly reduced”.

What about the “MTT, PC9/GR, value relative to control (=100), single replicate” value (“MTT, PC9/GR, value relative to control” below) ([7]; 25 (μM)) of the same compound?
Its value is 50.73 and 45.72 and 48.62 and 42.88.

And the “MTT, PC9/GR, value relative to control” value ([7]; 50 (μM))?
The value was 40.96 and 39.65 and 38.32 and 38.58.

And the “MTT, PC9/GR, value relative to control” value ([7]; 75 (μM))?
The value was 35.79 and 34.89 and 36.33 and 34.75.

And the “MTT, PC9/GR, value relative to control” value ([7]; 100 (μM))?
Its value is 32.66 and 25.67 and 34.43 and 24.78.

What about the IC50 ([7]; Homo sapiens, gefitinib-resistant PC9/GR, MTT, 24-hour treatment, 0–100 μM, read-out: IC50, growth inhibition) of the same compound?
The IC50 was 35.2 µM.

And the “C/EBPβ binding to TM7SF2 promoter (specific amplification bands)” value [8]?
The value was “did not show specific amplification bands”.
